According to patent US11078170B2 (Assembly Biosciences, Inc., priority 2017, dated 2021):

System: HBV viral production from HepAD38 cells
Test: Activity of test compounds on viral production from HepAD38 cells (viral load by qPCR of HBV core sequence in supernatant)
Assay type: cell-based
Details: Hepatitis B virus, 120 h, 5 days incubation, HBV DNA in supernatant by qPCR, top concentration 10 μM, read-out: Viral Load EC50 Activity range
Method in brief: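 EC50 and CC50 come from four-parameter fits of supernatant viral load and CellTiter-Glo viability, respectively. Viral load was measured by core-region TaqMan qPCR against HBV DNA standards and compared with DMSO controls. Tet-free HepAD38 cells (50,000/well, 2% FBS) were exposed to compound, highest 10 μM, for 5 days at 37° C.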

CN1C(C(=O)Nc2ccc(F)c(Cl)c2)CC(c2cc(-c3ccn(C)n3)cs2)NS1(=O)=O (racemic) [HBV-CSU-288, Cis-N-(3-Chloro-4-fluorophenyl)-2-methyl-5-(4-(1-methyl-1H-pyrazol-3-yl)thiophen-2-yl)-1,2,6-thiadiazinane-3-carboxamide 1,1-dioxide] and CN1[C@H](C(=O)Nc2ccc(F)c(Cl)c2)C[C@H](c2cc(-c3cnn(C)c3)cs2)NS1(=O)=O [HBV-CSU-169-ISO-I, Cis-N-(3-chloro-4-fluorophenyl)-2-methyl-5-(4-(1-methyl-1H-pyrazol-4-yl)thiophen-2-yl)-1,2,6-thiadiazinane-3-carboxamide 1,1-dioxide] cannot be ordered by EC50: less than 1000 nM for the first, less than 1000 nM for the second.

First: CN1[C@H](C(=O)Nc2ccc(F)c(Cl)c2)C[C@H](c2ccc(F)s2)NS1(=O)=O [HBV-CSU-029-ISO-I, Cis-N-(3-chloro-4-fluorophenyl)-5-(5-fluorothiophen-2-yl)-2-methyl-1,2,6-thiadiazinane-3-carboxamide 1,1-dioxide]
Second: CN1[C@H](C(=O)Nc2ccc(F)c(Cl)c2)C[C@@H](c2ccc(Br)s2)NS1(=O)=O [HBV-CSU-114-Trans-ISO-II, (3S,5S)-5-(5-bromothiophen-2-yl)-N-(3-chloro-4-fluorophenyl)-2-methyl-1,2,6-thiadiazinane-3-carboxamide 1,1-dioxide]
The EC50 of the first is lower: less than 1000 nM for the first, 1000 to 5000 nM for the second. The first is the more potent here.

CN1C(C(=O)Nc2ccc(F)c(Br)c2)CC(c2ccc(F)cc2)NS1(=O)=O (racemic) [HBV-CSU-211, Cis-N-(3-Bromo-4-fluorophenyl)-5-(4-fluorophenyl)-2-methyl-1,2,6-thiadiazinane-3-carboxamide 1,1-dioxide] and CN1C(C(=O)Nc2ccc(F)c(Cl)c2)CC(c2ccc(Br)cc2)NS1(=O)=O (stereo not drawn) [HBV-CSU-202, Cis-5-(4-Bromophenyl)-N-(3-chloro-4-fluorophenyl)-2-methyl-1,2,6-thiadiazinane-3-carboxamide 1,1-dioxide] cannot be ordered by EC50: less than 1000 nM for the first, less than 1000 nM for the second.

CN1[C@@H](C(=O)Nc2ccc(F)c(Cl)c2)C[C@@H](c2ccc(C(F)(F)F)cc2)NS1(=O)=O (stereo in doubt) [HBV-CSU-217-ISO-II, Cis-N-(3-Chloro-4-fluorophenyl)-2-methyl-5-(4-(trifluoromethyl)phenyl)-1,2,6-thiadiazinane-3-carboxamide 1,1-dioxide] and CN1[C@H](C(=O)Nc2ccc(F)c(Cl)c2)C[C@H](c2cccc(F)c2)NS1(=O)=O (relative stereo) [HBV-CSU-231-ISO-I, Cis-N-(3-Chloro-4-fluorophenyl)-5-(3-fluorophenyl)-2-methyl-1,2,6-thiadiazinane-3-carboxamide 1,1-dioxide] cannot be ordered by EC50: less than 1000 nM for the first, less than 1000 nM for the second.

CN1C(C(=O)Nc2ccc(F)c(Br)c2)CC(c2cc(Br)cs2)NS1(=O)=O (racemic) [HBV-CSU-258, Cis-N-(3-Bromo-4-fluorophenyl)-5-(4-bromothiophen-2-yl)-2-methyl-1,2,6-thiadiazinane-3-carboxamide 1,1-dioxide] and Cc1ccc(C2CC(C(=O)Nc3ccc(F)c(Cl)c3)N(C)S(=O)(=O)N2)s1 (racemic) [HBV-CSU-115, Cis-N-(3-chloro-4-fluorophenyl)-2-methyl-5-(5-methylthiophen-2-yl)-1,2,6-thiadiazinane-3-carboxamide 1,1-dioxide] cannot be ordered by EC50: less than 1000 nM for the first, less than 1000 nM for the second.

Compared with COCCN1[C@@H](C(=O)Nc2ccc(F)c(Cl)c2)C[C@@H](c2nccs2)NS1(=O)=O [HBV-CSU-058-ISO-I, Cis-N-(3-chloro-4-fluorophenyl)-2-(2-methoxyethyl)-5-(thiazol-2-yl)-1,2,6-thiadiazinane-3-carboxamide 1,1-dioxide], CSCCN1[C@H](C(=O)Nc2ccc(F)c(Cl)c2)C[C@H](c2nccs2)NS1(=O)=O [HBV-CSU-109-ISO-II, Cis-N-(3-Chloro-4-fluorophenyl)-2-(2-(methylthio)ethyl)-5-(thiazol-2-yl)-1,2,6-thiadiazinane-3-carboxamide 1,1-dioxide] is lower in EC50: greater than 5000 nM for the first, less than 1000 nM for the second.

Compared with CN1[C@H](C(=O)Nc2ccc(F)c(Cl)c2)C[C@H](c2ccc(-c3cnn(C)c3)s2)NS1(=O)=O [HBV-CSU-161-ISO-I, Cis-N-(3-chloro-4-fluorophenyl)-2-methyl-5-(5-(1-methyl-1H-pyrazol-4-yl)thiophen-2-yl)-1,2,6-thiadiazinane-3-carboxamide 1,1-dioxide], Cc1cc([C@@H]2C[C@H](C(=O)Nc3ccc(F)c(Cl)c3)N(C)S(=O)(=O)N2)sc1-c1cnn(C)c1 [HBV-CSU-300-ISO-II, Cis-N-(3-Chloro-4-fluorophenyl)-5-(4-methyl-5-(1-methyl-1H-pyrazol-4-yl)thiophen-2-yl)-2-methyl-1,2,6-thiadiazinane-3-carboxamide 1,1-dioxide] is higher in EC50: less than 1000 nM for the first, greater than 5000 nM for the second. The first is the more potent here.

[2H]C([2H])([2H])N1[C@@H](C(=O)Nc2ccc(F)c(Cl)c2)C[C@@H](c2ncc(Br)s2)NS1(=O)=O [HBV-CSU-336-ISO-II, 5-(5-Bromothiazol-2-yl)-N-(3-chloro-4-fluorophenyl)-2-(methyl-d3)-1,2,6-thiadiazinane-3-carboxamide 1,1-dioxide] and [2H]C([2H])([2H])N1[C@@H](C(=O)Nc2ccc(F)c(Cl)c2)C[C@@H](c2ncc(-c3cn(C)cn3)s2)NS1(=O)=O (relative stereo) [HBV-CSU-338-ISO-II, Cis-N-(3-Chloro-4-fluorophenyl)-2-(methyl-d3)-5-(5-(1-methyl-1H-imidazol-4-yl)thiazol-2-yl)-1,2,6-thiadiazinane-3-carboxamide 1,1-dioxide] fall in the same range of EC50: 1000 to 5000 nM for the first, 1000 to 5000 nM for the second.

CN1[C@H](C(=O)Nc2ccc(F)c(Cl)c2)C[C@H](c2ccc(-c3nncn3C)s2)NS1(=O)=O [HBV-CSU-324-ISO-I, Cis-N-(3-Chloro-4-fluorophenyl)-2-methyl-5-(5-(4-methyl-4H-1,2,4-triazol-3-yl)thiophen-2-yl)-1,2,6-thiadiazinane-3-carboxamide 1,1-dioxide] and CN1C(C(=O)Nc2ccc(F)c(Cl)c2)CC(c2ccc(-c3cccs3)s2)NS1(=O)=O (stereo not drawn) [HBV-CSU-162, Cis-N-5-([2,2′-bithiophen]-5-yl)-N-(3-chloro-4-fluorophenyl)-2-methyl-1,2,6-thiadiazinane-3-carboxamide 1,1-dioxide] cannot be ordered by EC50: less than 1000 nM for the first, less than 1000 nM for the second.

First: COCCN1[C@@H](C(=O)Nc2ccc(F)c(Cl)c2)C[C@@H](c2cccs2)NS1(=O)=O [HBV-CSU-025-ISO-I, Cis-N-(3-chloro-4-fluorophenyl)-2-(2-methoxyethyl)-5-(thiophen-2-yl)-1,2,6-thiadiazinane-3-carboxamide 1,1-dioxide]
Second: CN1[C@H](C(=O)Nc2cccc(Cl)c2)C[C@H](c2cccs2)NS1(=O)=O [HBV-CSU-010-ISO-I, Cis-N-(3-chlorophenyl)-2-methyl-5-(thiophen-2-yl)-1,2,6-thiadiazinane-3-carboxamide 1,1-dioxide]
The EC50 of the first is higher: greater than 5000 nM for the first, less than 1000 nM for the second.

Compared with N#CCN1[C@@H](C(=O)Nc2ccc(F)c(Cl)c2)C[C@@H](c2nccs2)NS1(=O)=O [HBV-CSU-093-ISO-II, Cis-N-(3-Chloro-4-fluorophenyl)-2-(cyanomethyl)-5-(thiazol-2-yl)-1,2,6-thiadiazinane-3-carboxamide 1,1-dioxide], CN1[C@@H](C(=O)Nc2ccc(F)c(Cl)c2)C[C@@H](c2ncc(-c3ccn(C)n3)s2)NS1(=O)=O (stereo in doubt) [HBV-CSU-280-ISO-II, Cis-N-(3-Chloro-4-fluorophenyl)-2-methyl-5-(5-(1-methyl-1H-pyrazol-3-yl)thiazol-2-yl)-1,2,6-thiadiazinane-3-carboxamide 1,1-dioxide] is lower in EC50: greater than 5000 nM for the first, less than 1000 nM for the second. The second is the more potent here.

CN(C)CCN1[C@@H](c2cccs2)C[C@@H](C(=O)Nc2ccc(F)c(Cl)c2)N(C)S1(=O)=O (relative stereo) [HBV-CSU-043-ISO-I, Cis-N-(3-chloro-4-fluorophenyl)-6-(2-(dimethylamino)ethyl)-2-methyl-5-(thiophen-2-yl)-1,2,6-thiadiazinane-3-carboxamide 1,1-dioxide] and CN(C)CCCOc1ccc([C@@H]2C[C@H](C(=O)Nc3ccc(F)c(Cl)c3)N(C)S(=O)(=O)N2)cc1 [HBV-CSU-208-ISO-I, Cis-N-(3-chloro-4-fluorophenyl)-5-(4-(3-(dimethylamino)propoxy)phenyl)-2-methyl-1,2,6-thiadiazinane-3-carboxamide 1,1-dioxide] cannot be ordered by EC50: greater than 5000 nM for the first, greater than 5000 nM for the second.

CN1[C@H](C(=O)Nc2ccc(F)c(Cl)c2)C[C@H](c2ccc(-c3cccs3)s2)NS1(=O)=O [HBV-CSU-162-ISO-I, Cis-N-5-([2,2′-bithiophen]-5-yl)-N-(3-chloro-4-fluorophenyl)-2-methyl-1,2,6-thiadiazinane-3-carboxamide 1,1-dioxide] and CN1C(C(=O)Nc2ccc(F)c(Cl)c2)CC(c2ccc(-c3ccccn3)s2)NS1(=O)=O (racemic) [HBV-CSU-160, Cis-N-(3-chloro-4-fluorophenyl)-2-methyl-5-(5-(pyridin-2-yl)thiophen-2-yl)-1,2,6-thiadiazinane-3-carboxamide 1,1-dioxide] cannot be ordered by EC50: less than 1000 nM for the first, less than 1000 nM for the second.

Cc1sc([C@H]2C[C@@H](C(=O)Nc3ccc(F)c(Cl)c3)N(C)S(=O)(=O)N2)cc1-c1cnn(C)c1 [HBV-CSU-304-ISO-I, Cis-N-(3-Chloro-4-fluorophenyl)-2-methyl-5-(5-methyl-4-(1-methyl-1H-pyrazol-4-yl)thiophen-2-yl)-1,2,6-thiadiazinane-3-carboxamide 1,1-dioxide] and CN1[C@H](C(=O)Nc2ccc(F)c(Cl)c2)C[C@H](c2ccc(-c3ccc(F)cc3)s2)NS1(=O)=O [HBV-CSU-238-ISO-I] cannot be ordered by EC50: less than 1000 nM for the first, less than 1000 nM for the second.

CN1[C@H](C(=O)Nc2ccc(F)c(Cl)c2)C[C@H](c2ncc(-c3ccc(F)cn3)s2)NS1(=O)=O [HBV-CSU-252-ISO-I, Cis-N-(3-Chloro-4-fluorophenyl)-5-(5-(5-fluoropyridin-2-yl)thiazol-2-yl)-2-methyl-1,2,6-thiadiazinane-3-carboxamide 1,1-dioxide] showed an EC50 of less than 1000 nM.
